{
  "source": "patent US20250185696A1",
  "about": "“NOVEL MENAQUINONE-N (VITAMIN-K2-7) SUPPLEMENTATION FOR LIVESTOCK AND POULTRY” (SYNERGIA LIFE SCIENCES PVT LTD., priority 2022, published 2025)",
  "key": {"[1]": {"tested_on": "Vencobb 400 breed of broiler chicken", "test": "Pilot study in chicks: body weight", "format": "in vivo", "settings": "Treatment group", "experimental": "(§1) A pilot study in 5605 chicks to evaluate the role of Menaquinone-n in bird weight increase, FCR and cost efficiency. The chicks were divided into Treatment group (N=2839) and Control group (N=2766). Menaquinone-7 (provided by Synergia Life Sciences as a 2000 ppm water dispersible powder) was administered to the treatment group for 30 days as per dosage outlined in Table 1. The birds were acclimatized for initial 4 days. Menaquinone-7 in divided doses was started on day 5 till day 30 and they were vaccinated on day 6.\n(§2) 5605 day old chicks were selected for the study. They were divided into Treatment group consisting of 2839 chicks, while the remaining 2766 were included in the Control group. The chicks were acclimatized for initial 4 days.\n(§3) Menaquinone-7 (provided by Synergia Life Sciences as a 2000 ppm water dispersible powder) was administered daily […] to the treatment group in daily dosages as outlined in Table 1. Menaquinone-7 in divided doses was started on day 5 till day 30 and the chicks were vaccinated on day 6. The body weight of the chicks was determined, and mortality rate observed on Day 11, Day 16, Day 22 and Day 28.\n(§4) A poultry farm with two open shades was selected for the study. Vencobb 400 breed of broiler chicken were selected for the study. Vencobb 400 breed was selected because at breeder level it is an early maturing bird with early peak, sustained production and better feed efficiency. Vencobb 400 is known for its proven adaptability to varied climatic conditions and husbandry practices.\n(§5) The chicks were housed in poultry sheds with tin rooting and open shade sides. Water was fed ad libitum through bell water feeders. The litter consisted of rice husk before housing the birds the cages were sanitized with hypo chloride, The chicks were provided with feed supplied from Godrej Tyson Foods, ad libitum.\n(§6) Menaquinone 7 supplementation was in a drinking water as in Table 1. Water was made up to the required level as required daily.\nBody weight was estimated by catching 5 birds in each group and determining the total weight and reporting the average at the intervals recorded in Table 2. At the end of treatment, after catching the total catching weight was recorded and the average weight determined."}, "[2]": {"tested_on": "Vencobb 400 breed of broiler chicken", "test": "Pilot study in chicks: mortality", "format": "in vivo", "settings": "for Cumulative Mortality: Treatment group (N=2839)", "experimental": "as §1, §2, §3, §4, §5, §6"}, "[3]": {"settings": "regular MK-7 intake; cited from earlier work"}, "[4]": {"tested_on": "Birds", "test": "Comparative study of control and treated group (Table 4): mortality, weight, FCR", "format": "in vivo", "settings": "Treated group, 2000 birds, K2 supplementation 15 g of 2000 ppm", "experimental": "Feed conversion ratio was calculated by taking the total amount of feed consumed by the bird and dividing it by the amount of weight gained."}, "[5]": {"tested_on": "Vencobb 400 breed of broiler chicken", "test": "Pilot study in chicks: cage side observations", "format": "in vivo", "experimental": "Cage side observations like daily life behavior patterns, odor of litter etc. were recorded."}},
  "note": "Where “and” joins values, the source holds several entries; their conditions need not be identical. Equal entries are not always repeated.",
  "data": [
    {"smiles": "CC(C)=CCC/C(C)=C/CC/C(C)=C/CC/C(C)=C/CC/C(C)=C/CC/C(C)=C/CC/C(C)=C/CC1=C(C)C(=O)c2ccccc2C1=O", "note": "[Menaquinone-7]", "values": [
      {"measurement": "Average weight (kg) per chick", "setting": "[1]; Day 0 (before dosing; dosing day 5 to day 30 in drinking water)", "result": 0.05, "unit": "kg"},
      {"measurement": "Average weight (kg) per chick", "setting": "[1]; Day 5 (start of dosing)", "result": 0.05, "unit": "kg"},
      {"measurement": "Average weight (kg) per chick", "setting": "[1]; Day 11", "result": 0.622, "unit": "kg"},
      {"measurement": "Average weight (kg) per chick", "setting": "[1]; Day 16", "result": 0.966, "unit": "kg"},
      {"measurement": "Average weight (kg) per chick", "setting": "[1]; Day 22", "result": 1.36, "unit": "kg"},
      {"measurement": "Average weight (kg) per chick", "setting": "[1]; Day 28", "result": "2 kg and 2.0 kg"},
      {"measurement": "Cumulative Mortality", "setting": "[2]; Day 0", "result": 0},
      {"measurement": "Cumulative Mortality", "setting": "[2]; Day 5 (start of dosing)", "result": 30},
      {"measurement": "Cumulative Mortality", "setting": "[2]; Day 11", "result": 61},
      {"measurement": "Cumulative Mortality", "setting": "[2]; Day 16", "result": 87},
      {"measurement": "Cumulative Mortality", "setting": "[2]; Day 22", "result": 95},
      {"measurement": "Cumulative Mortality", "setting": "[2]; Day 28", "result": 100},
      {"measurement": "Overall reduction in mortality rate", "setting": "[2]; Treatment group versus control group, end of 28th day", "result": "over 4%"},
      {"measurement": "Mortality rate/day", "setting": "[2]; Treatment group, Day 5 (start of dosing)", "result": 7.5, "unit": "per day"},
      {"measurement": "Mortality rate/day", "setting": "[2]; Treatment group, Day 11", "result": 2.8, "unit": "per day"},
      {"measurement": "Mortality rate/day", "setting": "[2]; Treatment group, Day 16", "result": 5.2, "unit": "per day"},
      {"measurement": "Mortality rate/day", "setting": "[2]; Treatment group, Day 22", "result": 1.3, "unit": "per day"},
      {"measurement": "Mortality rate/day", "setting": "[2]; Treatment group, Day 28", "result": 0.8, "unit": "per day"},
      {"measurement": "Mortality % (overall mortality)", "setting": "[2]; Treatment group, end of 28th day", "result": 3.52, "unit": "%"},
      {"measurement": "Blood levels, times higher than when not regularly taken", "setting": "[3]", "result": "7-8 times"},
      {"measurement": "Avg wt./bird", "setting": "[4]", "result": 2.1560, "unit": "kg"},
      {"measurement": "FCR", "setting": "[4]", "result": 0.728},
      {"measurement": "Mortality", "setting": "[4]", "result": 1.8, "unit": "%"},
      {"measurement": "Ammonia odor in the litter (cage side observation)", "setting": "[5]; Treatment group as compared to the control group", "result": "reduced ammonia odor"},
      {"measurement": "Stress due to heat, vaccination and crowding (cage side observation)", "setting": "[5]; Treatment group in comparison to the control group", "result": "appeared comfortable"}
    ]}
  ]
}
